What was measured:
Type in all cases: in vivo
[1] = test system: redroot pigweed (Amaranthus retroflexus, AMARE); assay: Pre-emerge test, greenhouse herbicide activity screening; conditions: rated 14 days after application, 0 = no damage, 100 = complete death
Outline: (§1)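 Compounds in acetone were track-sprayed at 15-1000 g ai/ha (187 l/ha) on sandy loam pots: pre-emerge one day after seeding, post-emerge at 2-3 leaf stage with 0.25% v/v non-ionic surfactant. Phytotoxicity was rated 14 days later on a 0 (no damage) to 100 (complete death) scale.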

[2] = test system: velvetleaf (Abutilon theophrasti, ABUTH); assay: as above; conditions: rated 14 days after application, 0 = no damage, 100 = complete death
Outline: (§2)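 Fourteen days after spraying, crop and weed injury was graded visually from 0, no effect, to 100, every plant dead. Test substances were dissolved in acetone and applied at 15–1000 g ai/ha with a flat-fan nozzle. Application was either pre-emergence, one day after sowing, or post-emergence at the 2–3 leaf stage.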

[3] = test system: common ragweed (Ambrosia artemisizfolia L., AMBEL); assay: as above; conditions: rated 14 days after application, 0 = no damage, 100 = complete death
Outline: as §2

[4] = test system: barnyardgrass (Echinochloa crus-galli, ECHCG); assay: as above; conditions: rated 14 days after application, 0 = no damage, 100 = complete death
Outline: as §2

[5] = test system: large crabgrass (Digitaria sanguinalis, DIGSA); assay: as above; conditions: rated 14 days after application, 0 = no damage, 100 = complete death
Outline: as §2

[6] = test system: ivyleaf morningglory (Ipomoea hederacea, IPOHE); assay: as above; conditions: rated 14 days after application, 0 = no damage, 100 = complete death
Outline: as §2

[7] = test system: lambsquarters (Chenopodium album, CHEAL); assay: as above; conditions: rated 14 days after application, 0 = no damage, 100 = complete death
Outline: as §2

[8] = test system: green foxtail (Setaria viridis, SETVI); assay: as above; conditions: rated 14 days after application, 0 = no damage, 100 = complete death
Outline: as §2

[9] = test system: sicklepod (Cassia obtusifolia, CASOB); assay: as above; conditions: rated 14 days after application, 0 = no damage, 100 = complete death
Outline: as §2

[10] = test system: johnsongrass (Sorghum halepense, SORHA); assay: as above; conditions: rated 14 days after application, 0 = no damage, 100 = complete death
Outline: as §2

[11] = test system: upland rice (Oryza sp., var. Tebonnet, RICE); assay: Post-emerge test, crop safety; conditions: post-emerge, 14 days after application, rating scale 0-100
Outline: as §2

[12] = test system: field corn (Zea mays L., var. Dekalb 535, CORN); assay: Post-emerge test, crop safety; conditions: post-emerge, 14 days after application, rating scale 0-100
Outline: as §2

[13] = test system: upland rice (Oryza sp., var. Tebonnet, RICE); assay: Pre-emerge test, crop safety; conditions: rated 14 days after application, 0 = no damage, 100 = complete death
Outline: as §1

[14] = test system: field corn (Zea mays L., var. Dekalb 535, CORN); assay: Pre-emerge test, crop safety; conditions: rated 14 days after application, 0 = no damage, 100 = complete death
Outline: as §1

[15] = test system: velvetleaf (Abutilon theophrasti, ABUTH); assay: Post-emerge test, greenhouse herbicide activity screening; conditions: post-emerge, 14 days after application, rating scale 0-100
Outline: (§3)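 Sandy loam pots; pre-emerge: sown 1 d pre-spray, surface-watered after, then bottom-watered. Post-emerge: sown 8–21 d before, 2–3 leaf stage, + 0.25% v/v NIS, bottom-watered. Acetone, 187 l/ha track spray, 15–1000 g ai/ha. 0–100 injury score, day 14.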

[16] = test system: common ragweed (Ambrosia artemisizfolia L., AMBEL); assay: as above; conditions: post-emerge, 14 days after application, rating scale 0-100
Outline: as §3

[17] = test system: barnyardgrass (Echinochloa crus-galli, ECHCG); assay: as above; conditions: post-emerge, 14 days after application, rating scale 0-100
Outline: as §3

[18] = test system: large crabgrass (Digitaria sanguinalis, DIGSA); assay: as above; conditions: post-emerge, 14 days after application, rating scale 0-100
Outline: as §3

[19] = test system: ivyleaf morningglory (Ipomoea hederacea, IPOHE); assay: as above; conditions: post-emerge, 14 days after application, rating scale 0-100
Outline: as §3

[20] = test system: lambsquarters (Chenopodium album, CHEAL); assay: as above; conditions: post-emerge, 14 days after application, rating scale 0-100
Outline: as §3

[21] = test system: green foxtail (Setaria viridis, SETVI); assay: as above; conditions: post-emerge, 14 days after application, rating scale 0-100
Outline: as §3

[22] = test system: redroot pigweed (Amaranthus retroflexus, AMARE); assay: as above; conditions: post-emerge, 14 days after application, rating scale 0-100
Outline: as §3

[23] = test system: sicklepod (Cassia obtusifolia, CASOB); assay: as above; conditions: post-emerge, 14 days after application, rating scale 0-100
Outline: as §3

[24] = test system: johnsongrass (Sorghum halepense, SORHA); assay: as above; conditions: post-emerge, 14 days after application, rating scale 0-100
Outline: as §3

COc1c(Cl)cc(F)c(-n2c(=O)cc(C(F)(F)F)n(C)c2=O)c1NC(=O)c1cc(F)cc(F)c1 [2-50]
Pre-emerge Herbicidal Activity, phytotoxicity rating (0-100), AMARE ([1]; 63 g ai/ha): 100 | Pre-emerge Herbicidal Activity, phytotoxicity rating (0-100), AMARE ([1]; 250 g ai/ha): 100 | Pre-emerge Herbicidal Activity, phytotoxicity rating (0-100), ABUTH ([2]; 63 g ai/ha): 100 | Pre-emerge Herbicidal Activity, phytotoxicity rating (0-100), ABUTH ([2]; 250 g ai/ha): 100 | Pre-emerge Herbicidal Activity, phytotoxicity rating (0-100), AMBEL ([3]; 63 g ai/ha): 60 | Pre-emerge Herbicidal Activity, phytotoxicity rating (0-100), AMBEL ([3]; 250 g ai/ha): 100 | Pre-emerge Herbicidal Activity, phytotoxicity rating (0-100), ECHCG ([4]; 63 g ai/ha): 10 | Pre-emerge Herbicidal Activity, phytotoxicity rating (0-100), ECHCG ([4]; 250 g ai/ha): 100 | Pre-emerge Herbicidal Activity, phytotoxicity rating (0-100), DIGSA ([5]; 63 g ai/ha): 70 | Pre-emerge Herbicidal Activity, phytotoxicity rating (0-100), DIGSA ([5]; 250 g ai/ha): 100 | Pre-emerge Herbicidal Activity, phytotoxicity rating (0-100), IPOHE ([6]; 63 g ai/ha): 70 | Pre-emerge Herbicidal Activity, phytotoxicity rating (0-100), IPOHE ([6]; 250 g ai/ha): 100 | Pre-emerge Herbicidal Activity, phytotoxicity rating (0-100), CHEAL ([7]; 63 g ai/ha): 100 | Pre-emerge Herbicidal Activity, phytotoxicity rating (0-100), CHEAL ([7]; 250 g ai/ha): 100 | Pre-emerge Herbicidal Activity, phytotoxicity rating (0-100), SETVI ([8]; 63 g ai/ha): 90 | Pre-emerge Herbicidal Activity, phytotoxicity rating (0-100), SETVI ([8]; 250 g ai/ha): 100 | Pre-emerge Herbicidal Activity, phytotoxicity rating (0-100), CASOB ([9]; 63 g ai/ha): 60 | Pre-emerge Herbicidal Activity, phytotoxicity rating (0-100), CASOB ([9]; 250 g ai/ha): 100 | Pre-emerge Herbicidal Activity, phytotoxicity rating (0-100), SORHA ([10]; 63 g ai/ha): 30 | Pre-emerge Herbicidal Activity, phytotoxicity rating (0-100), SORHA ([10]; 250 g ai/ha): 80 | phytotoxicity rating RICE ([11]; 63 g ai/ha): 60 | phytotoxicity rating RICE ([11]; 250 g ai/ha): 65 | phytotoxicity rating CORN ([12]; 63 g ai/ha): 10 | phytotoxicity rating CORN ([12]; 250 g ai/ha): 70 | Pre-emerge phytotoxicity rating (0-100), crop damage, RICE ([13]; 63 g ai/ha): 25 | Pre-emerge phytotoxicity rating (0-100), crop damage, RICE ([13]; 250 g ai/ha): 90 | Pre-emerge phytotoxicity rating (0-100), crop damage, CORN ([14]; 63 g ai/ha): 5 | Pre-emerge phytotoxicity rating (0-100), crop damage, CORN ([14]; 250 g ai/ha): 70 | phytotoxicity rating ABUTH ([15]; 63 g ai/ha): 100 | phytotoxicity rating ABUTH ([15]; 250 g ai/ha): 100 | phytotoxicity rating AMBEL ([16]; 63 g ai/ha): 40 | phytotoxicity rating AMBEL ([16]; 250 g ai/ha): 65 | phytotoxicity rating ECHCG ([17]; 63 g ai/ha): 0 | phytotoxicity rating ECHCG ([17]; 250 g ai/ha): 30 | phytotoxicity rating DIGSA ([18]; 63 g ai/ha): 10 | phytotoxicity rating DIGSA ([18]; 250 g ai/ha): 30 | phytotoxicity rating IPOHE ([19]; 63 g ai/ha): 100 | phytotoxicity rating IPOHE ([19]; 250 g ai/ha): 100 | phytotoxicity rating CHEAL ([20]; 63 g ai/ha): 70 | phytotoxicity rating CHEAL ([20]; 250 g ai/ha): 90 | phytotoxicity rating SETVI ([21]; 63 g ai/ha): 40 | phytotoxicity rating SETVI ([21]; 250 g ai/ha): 60 | phytotoxicity rating AMARE ([22]; 63 g ai/ha): 90 | phytotoxicity rating AMARE ([22]; 250 g ai/ha): 100 | phytotoxicity rating CASOB ([23]; 63 g ai/ha): 80 | phytotoxicity rating CASOB ([23]; 250 g ai/ha): 90 | phytotoxicity rating SORHA ([24]; 63 g ai/ha): 0 | phytotoxicity rating SORHA ([24]; 250 g ai/ha): 40

Source: US6355799B1, “Substituted benzene compounds, process for their preparation, and herbicidal and defoliant compositions containing them” (ISK Americas Incorporated, priority 1997, dated 2002)
